This note sets out measurements from ChEMBL document CHEMBL4229557, “Synthesis and SAR of new isoxazole-triazole bis-heterocyclic compounds as analogues of natural lignans with antiparasitic activity” (Bioorg Med Chem, 2018).

Data set [1] deals with Trypanosoma cruzi. Put plainly: Growth inhibition of Trypanosoma cruzi Tulahuen amastigote forms infected in human THP1 cells at 20 uM after 72 hrs by beta-galactosidase reporter gene assay relative to control. In kind it is functional. Particulars: THP-1, 72 h, read-out: GI.
The subject of data set [2] is Trypanosoma cruzi. Put plainly: Growth inhibition of Trypanosoma cruzi Tulahuen amastigote forms infected in human THP1 cells after 72 hrs by beta-galactosidase reporter gene assay. The settings on record: THP-1, 72 h. In kind it is functional. In general terms: Reporter assays use an easily measured gene product as a stand-in for the process of interest.
Data set [3] in a line: Cytotoxicity against human THP1 cells after 72 hrs by MTT assay. The settings on record: THP-1 cells. Format: cell-based. (Tetrazolium assays rely on reduction of a dye to a coloured formazan, in cell work by metabolically active cells.)
Data set [4] can be described thus: Selectivity index, ratio of CC50 for human THP1 cells to GI50 for Trypanosoma cruzi Tulahuen amastigote forms infected in human THP1 cells. Format: toxicity, cell-based. Particulars: read-out: Selectivity Index.
The subject of data set [5] is Trypanosoma cruzi. Put plainly: Growth inhibition of Trypanosoma cruzi Tulahuen amastigote forms infected in human THP1 cells at 100 uM after 72 hrs by beta-galactosidase reporter gene assay relative to control. In kind it is functional. The settings on record: THP-1, 72 h, read-out: GI.
For data set [6], the system named is Leishmania amazonensis. Put plainly: Growth inhibition of Leishmania amazonensis MHOM/BR/77/LTB0016 amastigote forms expressing beta-galactosidase infected in human THP1 cells at 100 uM by colorimetrc assay relative to control. In kind it is functional.
For data set [7], the target named is Trypanothione reductase (Trypanosoma cruzi) (UniProt P28593). Nature of the data set: Inhibition of Trypanosoma cruzi Trypanothione reductase expressed in Escherichia coli BL21(DE3) at 100 uM using T(S)2 as substrate incubated for 30 mins measured for 30 mins in presence of NADPH by DTNB reagent based assay relative to control.
Data set [8] concerns Leishmania amazonensis. Nature of the data set: Growth inhibition of Leishmania amazonensis MHOM/BR/77/LTB0016 amastigote forms expressing beta-galactosidase infected in human THP1 cells at 2 uM by colorimetrc assay relative to control. In kind it is functional. Particulars: MHOM/BR/77/LTB0016, THP-1, read-out: GI.

Active and inactive are the calls of the source. The rule behind the calls is not given here.

Trypanothione reductase (Trypanosoma cruzi), sequence (P28593 whole entry, looked up): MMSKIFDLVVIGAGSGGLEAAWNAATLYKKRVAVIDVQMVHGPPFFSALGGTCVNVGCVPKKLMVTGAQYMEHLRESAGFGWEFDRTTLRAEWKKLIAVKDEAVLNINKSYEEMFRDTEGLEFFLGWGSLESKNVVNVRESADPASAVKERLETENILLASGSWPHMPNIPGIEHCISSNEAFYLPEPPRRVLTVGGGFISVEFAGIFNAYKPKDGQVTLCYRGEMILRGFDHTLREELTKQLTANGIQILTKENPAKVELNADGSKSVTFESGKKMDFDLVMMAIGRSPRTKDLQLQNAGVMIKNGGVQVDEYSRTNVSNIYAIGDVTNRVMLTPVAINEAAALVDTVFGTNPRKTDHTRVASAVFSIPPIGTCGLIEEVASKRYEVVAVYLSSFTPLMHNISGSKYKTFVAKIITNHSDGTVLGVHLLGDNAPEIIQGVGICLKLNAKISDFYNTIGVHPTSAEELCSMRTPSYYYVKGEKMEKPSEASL

As usually defined, the GI50 is the concentration giving 50% growth inhibition. Low readings indicate greater sensitivity of the cells, high ones lower sensitivity of the cells. In general, CC50 refers to the concentration that lowers cell viability or growth by half. A low value points to harm at low concentration. Consider `O=C(Cn1ccnc1[N+](=O)[O-])NCc1ccccc1` [BENZNIDAZOLE], for which the inhibition of growth at 20 µM in data set [1] was 93%. This compound also displayed a GI50 in data set [2] of 10.2 µM. For the same compound, the CC50 at 72 h in data set [3] was > 500 µM. The selectivity ratio in data set [4] is > 49.
By inhibition is commonly meant the relative decrease from the control value, in per cent. For the compound `COc1cc(OC)cc(-c2cn(Cc3cc(-c4ccc(OC)c(OC)c4)no3)nn2)c1`, the inhibition of growth at 100 µM in data set [5] amounted to 74.8%. Besides, the GI50 in data set [2] is 30.3 µM. In addition, the CC50 at 72 h in data set [3] was > 500 µM. In data set [4], the selectivity ratio is > 16.5. Moreover, the “growth inhibition (GI)” value in data set [6] was “inactive”. Further, in data set [7], the inhibition came out at 8.9%.
On to `C[C@@H]1[C@H](O)[C@@H](C)/C=C/C=C/C=C/C=C/C=C/C=C/C=C/[C@H](O[C@@H]2O[C@H](C)[C@@H](O)[C@H](N)[C@@H]2O)C[C@@H]2O[C@](O)(C[C@@H](O)C[C@@H](O)[C@H](O)CC[C@@H](O)C[C@@H](O)CC(=O)O[C@H]1C)C[C@H](O)[C@H]2C(=O)O` [AMPHOTERICIN B], for which the inhibition of growth at 2 µM in data set [8] was 96.5%.
